Data on 3 compounds can be found in ChEMBL document CHEMBL1201862, “PubChem BioAssay data set” (2004).

Test systems include SR; A549; SK-MEL-2; U-251; KM12; HOP-18; EKVX; TK-10; SNB-19; NCI-H23; DMS-114; LOX IMVI; LXFL 529; SN12C; ACHN; M19-MEL; OVCAR-8; RXF 393; SK-MEL-28; UO-31.
What all share (assay): inhibition of tumour cell growth, NCI panel, 48 h

SMILES strings stand for the structures.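 Assay format: 96-well plates, 48-hour exposure. The concentration for 50% growth inhibition is given as GI50.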 The source made the active and inactive calls. Cut-off read from the data, not from the text of the source: active = GI50 up to about 1.1 µM and inactive = higher.

Take `N#CCCN(CCC#N)c1ccc(/C=C(\NC(=O)c2cc([N+](=O)[O-])ccc2Cl)C(=O)Nc2ccccc2)cc1`: the GI50 in the experiment on SR is 36.3 µM (inactive); in the experiment with A549, > 100 µM (inactive); with SK-MEL-2 it was > 100 µM (inactive); with U-251 it was > 100 µM (inactive); in the experiment with KM12, > 100 µM (inactive); in the experiment with HOP-18, > 100 µM (inactive). Moreover, the GI50 is > 100 µM (inactive) with EKVX; 48 µM (inactive) in the experiment on TK-10; > 100 µM (inactive) in the experiment on SNB-19; > 100 µM (inactive) in the experiment on NCI-H23; 55 µM (inactive) with DMS-114; 21.4 µM (inactive) with LOX IMVI. The GI50 with LXFL 529 was 10.5 µM (inactive); in the experiment on SN12C it was > 100 µM (inactive); with ACHN it was 12.2 µM (inactive); in the experiment with M19-MEL, > 100 µM (inactive); in the experiment on OVCAR-8, 83.9 µM (inactive); with RXF 393 it was > 100 µM (inactive). Also, the GI50 in the experiment on SK-MEL-28 and in the experiment with UO-31 was > 100 µM (inactive) in each case.
Regarding `Cc1cc(O)nc(NN2C(Cl)C(=O)C2c2ccc([N+](=O)[O-])cc2)n1` (stereo not given), the GI50 is 6.15 µM (inactive) in the experiment with SR; 14.7 µM (inactive) in the experiment on A549; 6.07 µM (inactive) in the experiment with SK-MEL-2; 13.8 µM (inactive) in the experiment with U-251; > 10 µM (inactive) in the experiment with KM12; 11.3 µM (inactive) in the experiment on HOP-18. The GI50 in the experiment with EKVX is 23 µM (inactive); in the experiment with TK-10, 15.8 µM (inactive); in the experiment with SNB-19 it was 15.3 µM (inactive); in the experiment with NCI-H23, 7.18 µM (inactive); with DMS-114, 8.07 µM (inactive); in the experiment on LOX IMVI, 5.96 µM (inactive). Also, the GI50 was 7.67 µM (inactive) in the experiment with LXFL 529; 11.1 µM (inactive) in the experiment on SN12C; 7.4 µM (inactive) with ACHN; 4.26 µM (inactive) in the experiment on M19-MEL; 17.8 µM (inactive) with OVCAR-8; 0.76 µM (active) with RXF 393. The values for the GI50 in the experiment on SK-MEL-28 and in the experiment on UO-31 were 11.9 µM (inactive) and 13.9 µM (inactive), respectively.
On to `CCCCN1C(=O)NC(Cc2ccccc2)C1=O` (stereo not given), for which the GI50 in the experiment with SR, in the experiment with A549, with SK-MEL-2, in the experiment on U-251, with KM12 and with HOP-18 was > 100 µM (inactive) in each case. For the same compound, the GI50 in the experiment with EKVX, in the experiment on TK-10, in the experiment on SNB-19, with NCI-H23, in the experiment with DMS-114 and in the experiment with LOX IMVI was > 100 µM (inactive) throughout. Further, the GI50 in the experiment with LXFL 529, with SN12C, in the experiment with ACHN, in the experiment on M19-MEL, in the experiment on OVCAR-8 and with RXF 393 was > 100 µM (inactive) each time. Also, the GI50 with SK-MEL-28 and with UO-31 was > 100 µM (inactive) each time.
